The source of these data is US20130184294A1, “Pyrimidones for Treatment of Potassium Channel Related Diseases” (Pfizer Inc., priority 2010, published 2013).

The EC50 is the concentration needed to bring the measured effect to its halfway point.

The test concerns the target T1, Kv7.2/7.3 channels (Homo sapiens, UniProt O43525+O43526).
T1 construct: The entire construct for Kv7.2 and Kv7.3 was subcloned into the pIRESneo3 and pIREShygro3 expression vectors; expressed in transfected cells
Put plainly: Kv7.2/3 channel opening activity, IonWorks planar patch-clamp of K-current at 0 mV. Conditions: CHO-K1 cells expressing human Kv7.2/7.3; IonWorks Quattro, step from -80 mV to 0 mV, 7-point concentration curves. It is filed as cell-based. An excerpt: Biological Assay for Kv7.2/3 Channel Opening Activity
Human Kv7.2 and Kv7.3 clones were obtained from GeneDynamics (Eugene, Oreg.). Both human Kv7.2/pIRESneo3 and human Kv7.3/pIREShygro3 expression vectors were constructed using a combination of fragments amplified from a human hippocampus library (extending from a NheI site near the 5′ end through the stop codon) and synthetic oligonucleotides (extending from the start codon to the BamHI site). The entire construct for Kv7.2 and Kv7.3 was subcloned into the pIRESneo3 and pIREShygro3 expression vectors (Clonetech, Mountain View, Calif.), respectively, using NheI/BamHI sites introduced on either side of the start and stop codons. The construct was sequenced in its entirety to make sure that no mutations were introduced during the amplification and cloning process. Adapted from Wickendon, A D et al., Mol Pharmacol 58(3):591-600, 2000.
Chinese hamster ovary (CHO-K1) cells were transfected with human-Kv7.2 in a pIRESneo3 plasmid DNA vector (Clonetech, Mountain View, Calif.) and the h-Kv7.3 subunit in pIREShygro3 plasmid DNA vector using Lipofectamine-2000™ reagent (InVitrogen, San Diego, Calif.), according to the manufacturers instructions. Cells stably expressing the human Kv7.2 and Kv7.3 constructs were identified by their resistance to 400 ug/ml, geneticin (Gibco #10131-027) and 400 ug/ml, hygromycin-B (Invitrogen #10687-010). Clones were screened for functional expression using the whole-cell, voltage-clamp technique.
To determine if compounds can enhance voltage-dependent K-current in Kv7.2/7.3 channel containing CHO-K1 cells. Planar patch-clamp is used on IonWorks to functionally determine percent enhancement of Kv7.2/7.3-current at 0 mV (compared to retigabine) and potency (EC50) of compounds. Intrinsic activity and/or potency may be important in determining in vivo pharmacological efficacy of the compounds.
Serial dilutions were made in DMSO on an Apricot Personal Pipettor. Compounds were then diluted in external buffer on a 384 well assay plate (final DMSO concentration=0.3%).
Cells used in this assay were CHO-K1 expressing Kv7.2/7.3 channels. Cells were maintained in growth media containing: F-12 (Gibco #11765-054), 10% FBS (Invitrogen 16140-071), 1:100 Glutamax (Gibco #35050-061), 1:100 Penicillin/streptomycin (Gibco #15140-122), 400 ug/ml Geneticin (Gibco #10131-027), 400 ug/ml Hygromycin-B (Invitrogen #10687-010). Cells were grown in T-150 flasks to a confluence of approx. 80%. External recording buffer contained (in mM): NaCl (137), KCl (4), MgCl2 (1), CaCl2 (1.8), HEPES (10), and glucose (10), pH was adjusted to 7.3 with NaOH and osmolarity was adjusted to 300-305 mOsM with sucrose, if necessary. Internal buffer contained (in mM): Kgluconate (120), KCl (20), NaCl (5), MgCl2 (1), CaCl2 (2), HEPES (10), KF (2), and Na2ATP (2). Na2ATP was added to internal buffer right before use and pH was adjusted to 7.2 with KOH. Osmolarity of internal buffer was adjusted to 290-295 mOsM.
Cells were washed 1× with Ca/Mg free PBS and then removed from the plates with a 50:50 mixture of versene (Gibco 15040): 0.25% trypsin-EDTA (Gibco 25200) (4 min), triturated, centrifuged at ˜1000 rpm for 5 min, and resuspended at ˜2.5 million cells/ml in external buffer for recording on IonWorks. Potassium current measurements were made using an IonWorks Quattro instrument (MDS Corp.) using PatchPlate PPC substrates with 64 apertures per well. IonWorks calculated leak current was digitally subtracted from the total current acquired. Potassium current was elicited by stepping from −80 mV to 0 mV (2 sec) was measured in the absence and presence of increasing concentrations (½ log) of unknown compound (7-point concentration curves). Retigabine was run as a positive control and comparator on each PatchPlate PPC. Maximum increase in K current was determined by subtracting the current elicited in external buffer alone wells from the current elicited in wells with compound treatment (both at 0 mV). […]

As to `CC(C)(C)CC(=O)Nc1c(NC2CCC2)nc2c(C(F)(F)F)cccn2c1=O` [Example 6, N-[2-(Cyclobutylamino)-4-oxo-9-(trifluoromethyl)-4H-pyrido[1,2-a]pyrimidin-3-yl]-3,3-dimethylbutanamide], the EC50 worked out at 91.5 nM.

Take `CC[C@@H](C)Nc1nc2n(c(=O)c1NC(=O)CC(C)(C)C)CCCC2C` (single isomer, unassigned; diastereomer 1) [Example 11a]: the EC50 was determined as 307 nM.

With `CC(C)Nc1nc2c(OC(C)(F)F)cccn2c(=O)c1NC(=O)CC(C)(C)C` [Example 9, N-[9-(1,1-Difluoroethoxy)-4-oxo-2-(propan-2-ylamino)-4H-pyrido[1,2-a]pyrimidin-3-yl]-3,3-dimethylbutanamide], the EC50 was 369 nM.

Regarding `CC(C)Nc1nc2c(C(F)(F)F)cccn2c(=O)c1NC(=O)CC(C)(C)C` [Example 7, 3,3-Dimethyl-N-[4-oxo-2-(propan-2-ylamino)-9-(trifluoromethyl)-4H-pyrido[1,2-a]pyrimidin-3-yl]butanamide], the EC50 was 119 nM.

In the case of `Cc1cccn2c(=O)c(NC(=O)CC(C)(C)C)c(NC(C)C3CC3)nc12` (single isomer, unassigned) [Example 2a, N-{2-[(1-Cyclopropylethyl)amino]-9-methyl-4-oxo-4H-pyrido[1,2-a]pyrimidin-3-yl}-3,3-dimethylbutanamide, (+)-enantiomer], the EC50 was determined as 227 nM.

For `CC(C)Nc1nc2n(c(=O)c1NC(=O)CC(C)(C)C)CCCC2C(F)(F)F` (single isomer, unassigned) [Example 8a, 3,3-Dimethyl-N-[4-oxo-2-(propan-2-ylamino)-9-(trifluoromethyl)-6,7,8,9-tetrahydro-4H-pyrido[1,2-a]pyrimidin-3-yl]butanamide, (−) enantiomer], the EC50 stood at 382 nM.

For the molecule `CC(C)(C)CC(=O)Nc1c(C2CC2)nc2n(c1=O)CCCC2C(F)(F)F` (single isomer, unassigned) [Example 5a, N-[2-Cyclopropyl-4-oxo-9-(trifluoromethyl)-6,7,8,9-tetrahydro-4H-pyrido[1,2-a]pyrimidin-3-yl]-3,3-dimethylbutanamide, (−)-enantiomer], the EC50 is 1240 nM.

For the molecule `Cc1cccn2c(=O)c(NC(=O)CC(C)(C)C)c(NC(C)C3CC3)nc12` (single isomer, unassigned) [Example 2b, N-{2-[(1-Cyclopropylethyl)amino]-9-methyl-4-oxo-4H-pyrido[1,2-a]pyrimidin-3-yl}-3,3-dimethylbutanamide, (−)-enantiomer], the EC50 amounted to 128 nM.

Take `CC[C@@H](C)Nc1nc2c(C)cccn2c(=O)c1NC(=O)CC(C)(C)C` [Example 1, N-{2-[(2R)-Butan-2-ylamino]-9-methyl-4-oxo-4H-pyrido[1,2-a]pyrimidin-3-yl}-3,3-dimethylbutanamide]: the concentration for a half-maximal effect (EC50) came to 168 nM.

As for `Cc1cccn2c(=O)c(NC(=O)CC(C)(C)C)c(NC(C)C)nc12` [Example 3, 3,3-Dimethyl-N-[9-methyl-4-oxo-2-(propan-2-ylamino)-4H-pyrido[1,2-a]pyrimidin-3-yl]butanamide], the EC50 came to 450 nM.

As to `CC(C)(C)CC(=O)Nc1c(C2CC2)nc2c(OC(C)(F)F)cccn2c1=O` [Example 10, N-[2-Cyclopropyl-9-(1,1-difluoroethoxy)-4-oxo-4H-pyrido[1,2-a]pyrimidin-3-yl]-3,3-dimethylbutanamide], the EC50 was found to be 306 nM.

On to `CC(C)(C)CC(=O)Nc1c(C2CC2)nc2n(c1=O)CCCC2C(F)(F)F` (single isomer, unassigned) [Example 5b, N-[2-Cyclopropyl-4-oxo-9-(trifluoromethyl)-6,7,8,9-tetrahydro-4H-pyrido[1,2-a]pyrimidin-3-yl]-3,3-dimethylbutanamide, (+)-enantiomer], for which the EC50 came to 298 nM.

For `CC(C)(C)CC(=O)Nc1c(C2CC2)nc2c(C(F)(F)F)cccn2c1=O` [Example 4, N-[2-Cyclopropyl-4-oxo-9-(trifluoromethyl)-4H-pyrido[1,2-a]pyrimidin-3-yl]-3,3-dimethylbutanamide], the EC50 worked out at 137 nM.

In the case of `CC(C)Nc1nc2n(c(=O)c1NC(=O)CC(C)(C)C)CCCC2C(F)(F)F` (single isomer, unassigned) [Example 8b, 3,3-Dimethyl-N-[4-oxo-2-(propan-2-ylamino)-9-(trifluoromethyl)-6,7,8,9-tetrahydro-4H-pyrido[1,2-a]pyrimidin-3-yl]butanamide, (+) enantiomer], the EC50 is 412 nM.

On to `CC[C@@H](C)Nc1nc2n(c(=O)c1NC(=O)CC(C)(C)C)CCCC2C` (single isomer, unassigned; diastereomer 2) [Example 11b], for which the EC50 turned out to be 942 nM.
